Measured values as given in US5905085A, “Trans cyclopentanyl deazaadenyl analogs useful as immunosuppressants” (Hoechst Marion Roussel, Inc., priority 1997, dated 1999).
Counter-ions that a name gives are not always drawn.

Legend:
[1] = tested on: Tumor Necrosis Factor alpha; assay: Inhibition of Tumor Necrosis Factor alpha in LPS-stimulated PBMC (ELISA); assay type: cell-based; details: human PBMC adherent cells, 1 μg/ml LPS from E. coli, 18 hours; read-out: IC50 (TNF-α inhibition)
Method: Peripheral blood mononuclear cells (PBMC) are isolated from venous blood collected from healthy volunteers in sodium citrate (5 ml of 3.6% sodium citrate for 45 ml of blood) by density gradient centrifugation of 5 minutes at 1500 rpm. The PBMC are resuspended in about 10 ml of RPMI-1640 with antibiotics. Approximately 2×10^6 cells of PBMC are added to tissue culture plates, incubated for 45-60 minutes at 37° C. with 5% CO2, aspirated, and washed twice by adding about 0.5 ml fresh RPMI-1640 with 10% non-mitogenic FBS (RPMI complete) and shaking for 15 to 30 seconds. 1.0 ml RPMI-1640 is added per well to the remaining adherent cells, which are pretreated with test compound solution about 15 minutes prior to endotoxin stimulation (1 μg/ml lipopolysaccharide from E. coli or solvent concentrations equal to those of test compounds.
Cultures are incubated for 18 hours t 37° C. in 5% CO2. Supernatants are tested from TNF-a using a commercial ELISA kit (Cistron, Pine Brook, N.J.). The IC50 is determined using SOFTmax software program.

[2] = tested on: rat macrophage antigen presentation to LEW/N rat T-cell hybridoma (Interleukin-2 production); assay: Regulation of antigen presentation to rat T-cell hybridoma (Interleukin-2 production); assay type: cell-based
Method: Using the method of Ku (Cellular Immunology 130,(1990)) and a Lewis (LEW/N) rat T-cell hybridoma reactive with the protein methylated bovine serum albumin (mBSA), the ability of a compound of formula (1) to regulate M.phi. antigen presentation in vitro may be measured. Peritoneal macrophages obtained from LEW/N rats are plated into tissue culture and treated with 100 ug of mBSA and drug A control is prepared similarly. After a period of 18 hours the cells are washed and incubated with the T-cell hybridoma for an additional 12 hours. Supernatants from these cultures are obtained and measured for content of Interleukin-2, a T-cell derived lymphokine which is produced by activated T-cells. […] Rat macrophage antigen presentation and the subsequent production of Interleukin-2 are inhibited when drug is administered over a concentration range from 0.1 to 100 uM as illustrated in the following table.

[3] = tested on: endotoxin-induced septic shock in CFl mice; assay: Regulation of endotoxin lethality (mouse endotoxin lethality model); assay type: in vivo; details: 100 mg/kg i.p., pretreated at t = -1 hr; challenge D-galactosamine 18 mg and LPS 50 ng; observed 8-72 hour
Method: Using the method of Silverstein, (J. Exp. Med. 173, 357 (1991)) a mouse endotoxin lethality model may be used to determine if a compound of formula (1) has the ability to inhibit endotoxin-induced septic shock which is dependent on the production of Tumor Necrosis Factor-α (TNF-α). CFl mice pretreated at time (t)=-1 hr with drug are challenged with 18 mg of D-glactoseamine and 50 ng of LPS, then observed for death over an 8-72 hour period.

[4] = tested on: MHC class II antigen on rat macrophages; assay: Regulation of MHC class II expression on macrophages (flow cytometry, OX-6/OX-42); assay type: cell-based
Method: Using the method of Edwards (J. of Cell Biochemistry 5E, 155(1991)), the ability of a compound of formula (1) to reduce Major Histocompatibility complex (MHC) class II antigen levels on macrophages (M.phi.) obtained from M.tuberculosis-treated rats may be measured. Cells obtained from treated rats are plated into tissue culture for a period of 4 hours to purify adherent cells, then treated with increasing levels of drug for a period of 18 hours. After this incubation period, cells are scraped from the dishes and stained using flow cytometry analysis with various monoclonal antibodies such as OX-6 a monoclonal antibody specific for MHC class II antigens and OX-42 a monoclonal antibody specific for rat macrophages.

| Compound | IC50 [1] [µM] | inhibition at 0.1 µM ([2]; Rattus norvegicus, T-cell, in vitro concentration 0.1 μM) [%] | inhibition at 1 µM ([2]; Rattus norvegicus, T-cell, in vitro concentration 1.0 μM) [%] | inhibition at 10 µM ([2]; Rattus norvegicus, T-cell, in vitro concentration 10.0 μM) [%] | inhibition at 100 µM ([2]; Rattus norvegicus, T-cell, in vitro concentration 100.0 μM) [%] | Rat macrophage antigen presentation and subsequent production of Interleukin-2 ([2]; concentration range from 0.1 to 100 uM) | T-cell activation ([2]; in vitro, mBSA antigen, rat T-cell hybridoma) | protection against endotoxin lethality [3] | OX-6/OX-42 double positive macrophages ([4]; 10 μM, 18 hours, positive control 59%) [%] | inhibition at 10 µM ([4]; Rattus norvegicus, Macrophage, 18 h, read-out: reduction of MHC II antigen expression on rat macrophages in vitro compared to positive control) [%] |
| --- | --- | --- | --- | --- | --- | --- | --- | --- | --- | --- |
| Nc1ncnc2c1ncn2[C@@H]1CCC[C@H]1O (relative stereo) [(±)-Trans-1-(9-adenyl)-2-hydroxycyclopentane, reference compound] | 22.2 |  |  |  |  |  |  |  |  |  |
| Nc1ncnc2c1ncn2[C@@H]1CC[C@@H](O)C1 [(1R,3R)-TRANS-1(9-ADENYL)CYCLOPENTAN-3-OL HYDROCHLORIDE] | 9 | 7.6 | 30.9 | 48.7 | 55.3 | inhibited | inhibits T-cell activation | protects against endotoxin lethality | 39 | ~33 |
| Nc1nc(Cl)nc2c1ncn2[C@@H]1CC[C@@H](O)C1 [(1R,3R)-Trans-1-[9-(6-amino-2-cholopurinyl)]cyclopentan-3-ol hydrochloride] | 4.1 |  |  |  |  |  |  |  |  |  |
